In the oligonucleotide strings, read from the 5' end, every base follows the letter of its sugar. An asterisk marks phosphorothioate; unmarked linkages are phosphodiester. Other units and linkages are bracketed, terminal groups are in braces. A string of capitals states the bases alone. e = 2'-O-(2-methoxyethyl) (MOE); [5mC] = 5-methylcytosine; d = 2'-deoxy (DNA)
Test system: human Factor 7 mRNA
Experiment: Antisense inhibition of human Factor 7 mRNA in HepB3 cells, lipofectin, 50 nM, real-time RT-PCR
Assay type: cell-based
Details: HepB3 cells; for % Inhibition (human Factor 7 mRNA): 50 nM, ~24 h
Method in brief: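 Percent inhibition, untreated cells as reference: derived from RNA collected about 24 hours post-transfection of 4,000-cell wells, with the human RTS 2927 primer probe set and adjustment for total RNA content (RIBOGREEN®).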

[1] = lipofectin, 50 nM antisense oligonucleotide, approximately 24 hours, primer probe set RTS 2927, relative to untreated control
[2] = gapmers (5-10-5, 3-14-3, 2-13-5 MOE) targeted to nucleobases 4868 to 4899 of SEQ ID NO: 1
[3] = gapmers targeted to nucleobases 11830 to 11869 of SEQ ID NO: 1 (Table 9)
[4] = Example 1, lipofectin, relative to untreated control cells
[5] = Example 4, lipofectin, relative to untreated control
[6] = gapmers targeted to nucleobases 13760 to 13789 of SEQ ID NO: 1 (Table 10)

Substance: 422277 (antisense e[5mC]*e[5mC]*dT*dG*dA*dG*dG*d[5mC]*d[5mC]*dA*dG*d[5mC]*dA*dG*dA*eT*e[5mC]*eA*e[5mC]*eG) [compound 422277]
- % Inhibition of human Factor 7 mRNA levels (gapmers targeted to nucleobases 14707 to 14732 of SEQ ID NO: 1 (Table 11)): 56%

Substance: 416541 (antisense e[5mC]*e[5mC]*eA*e[5mC]*e[5mC]*d[5mC]*dT*dT*dG*dG*dT*dG*d[5mC]*d[5mC]*d[5mC]*eA*eG*eA*eT*e[5mC]) [compound 416541]
- % Inhibition of human Factor 7 mRNA levels [1]: 53%

Substance: 416476 (antisense eG*e[5mC]*eA*eG*eG*dT*dG*dG*dG*d[5mC]*dT*dT*dG*dG*d[5mC]*eT*eG*eA*eA*eG) [compound 416476]
- % Inhibition of human Factor 7 mRNA levels [1]: 58%

Substance: 422218 (antisense e[5mC]*eG*eA*dG*dT*dT*d[5mC]*dT*dG*d[5mC]*dA*dG*dG*dA*dG*d[5mC]*dG*eG*e[5mC]*e[5mC]) [compound 422218]
- % Inhibition of human Factor 7 mRNA levels [2]: 70%

Substance: 416518 (antisense eG*eG*eG*eT*eG*dA*d[5mC]*d[5mC]*dA*d[5mC]*dA*d[5mC]*dA*dT*dT*eT*e[5mC]*e[5mC]*eT*eG) [compound 416518]
- % Inhibition of human Factor 7 mRNA levels [1]: 55%

Substance: 422251 (antisense eG*e[5mC]*dT*dG*dG*d[5mC]*dT*dG*dA*dG*dG*dA*dG*dA*d[5mC]*eA*eA*eT*eG*eG) [compound 422251]
- % Inhibition of human Factor 7 mRNA levels [3]: 36%

Substance: 422238 (antisense eA*e[5mC]*dA*dA*dT*dG*dG*dT*d[5mC]*dA*dG*dG*dG*d[5mC]*dT*eG*eG*eT*eT*eT) [compound 422238]
- % Inhibition of human Factor 7 mRNA levels [3]: 64%

Substance: 407962 (antisense eT*eT*eG*eG*eA*dA*dG*d[5mC]*dA*dG*d[5mC]*d[5mC]*d[5mC]*dA*d[5mC]*eG*eG*e[5mC]*eT*eG) [compound 407962]
- % Inhibition (human Factor 7 mRNA) [4]: 41%

Substance: 416515 (antisense eT*eA*eG*eG*e[5mC]*dA*dT*dG*dA*d[5mC]*d[5mC]*dA*dT*d[5mC]*d[5mC]*eT*e[5mC]*eA*eA*eT) [compound 416515]
- % Inhibition of human Factor 7 mRNA levels [1]: 39%

Substance: 422221 (antisense eG*e[5mC]*e[5mC]*d[5mC]*dG*dA*dG*dT*dT*d[5mC]*dT*dG*d[5mC]*dA*dG*dG*dA*eG*e[5mC]*eG) [compound 422221]
- % Inhibition of human Factor 7 mRNA levels [2]: 59%

Substance: 407646 (antisense eG*eG*eT*eG*eA*dT*dG*d[5mC]*dT*dT*d[5mC]*dT*dG*dA*dA*eT*eT*eG*eT*e[5mC]) [compound 407646]
- % Inhibition (human Factor 7 mRNA) [4]: 81%

Substance: 407599 (antisense e[5mC]*e[5mC]*eT*eG*eG*dG*dA*dG*dA*d[5mC]*d[5mC]*dA*dT*dG*dA*eT*eG*eA*eA*eA) [compound 407599]
- % Inhibition (human Factor 7 mRNA) [4]: 73%

Substance: 416448 (antisense eT*eT*eT*eT*eT*d[5mC]*d[5mC]*dA*d[5mC]*dA*dT*dG*dG*dA*dT*eA*eT*eT*e[5mC]*eA) [compound 416448]
- % Inhibition of human Factor 7 mRNA levels [1]: 34%

Substance: 422167 (antisense eG*eA*eG*dG*dA*dG*dA*d[5mC]*dA*dA*dT*dG*dG*dT*d[5mC]*dA*dG*eG*eG*e[5mC]) [compound 422167]
- % Inhibition of human Factor 7 mRNA levels [3]: 53%

Substance: 422125 (antisense e[5mC]*eT*eG*eA*eG*d[5mC]*dG*d[5mC]*dG*dG*dA*dA*dG*dA*dA*eG*eG*eG*eA*e[5mC]) [compound 422125]
- % Inhibition (human Factor 7 mRNA) [5]: 8%

Substance: 407603 (antisense eT*eA*eA*eG*eA*dA*dA*dT*d[5mC]*d[5mC]*dA*dG*dA*dA*d[5mC]*eA*eG*e[5mC]*eT*eT) [compound 407603]
- % Inhibition (human Factor 7 mRNA) [4]: 54%

Substance: 422093 (antisense eA*eA*eT*eG*eG*dT*d[5mC]*dA*dG*dG*dG*d[5mC]*dT*dG*dG*eT*eT*eT*eT*eG) [compound 422093]
- % Inhibition of human Factor 7 mRNA levels [3]: 42%

Substance: 422293 (antisense eA*eG*dT*dT*d[5mC]*dT*dG*d[5mC]*dA*dG*dG*dA*dG*d[5mC]*dG*eG*e[5mC]*e[5mC]*eT*eA) [compound 422293]
- % Inhibition of human Factor 7 mRNA levels [2]: 69%

Substance: 422258 (antisense eG*e[5mC]*d[5mC]*dA*d[5mC]*d[5mC]*d[5mC]*dG*d[5mC]*d[5mC]*dG*dG*d[5mC]*dT*d[5mC]*eT*eG*e[5mC]*eT*e[5mC]) [compound 422258]
- % Inhibition of human Factor 7 mRNA levels [6]: 66%

Substance: 416527 (antisense eG*eA*eG*e[5mC]*eT*dT*d[5mC]*d[5mC]*d[5mC]*dA*dA*dG*dT*dT*dG*eG*e[5mC]*eA*eG*eT) [compound 416527]
- % Inhibition of human Factor 7 mRNA levels [1]: 49%

Substance: 407922 (antisense eT*e[5mC]*eG*eA*e[5mC]*dG*d[5mC]*dA*dG*d[5mC]*d[5mC]*dT*dT*dG*dG*e[5mC]*eT*eT*eT*e[5mC]) [compound 407922]
- % Inhibition (human Factor 7 mRNA) [4]: 82%

Substance: 407650 (antisense e[5mC]*e[5mC]*eA*eT*eG*dT*dG*dA*dG*dG*dG*dT*dT*d[5mC]*dA*eT*eT*eT*e[5mC]*eA) [compound 407650]
- % Inhibition (human Factor 7 mRNA) [4]: 39%

Substance: 407912 (antisense e[5mC]*e[5mC]*e[5mC]*eG*eG*dT*dA*dG*dT*dG*dG*dG*dT*dG*dG*e[5mC]*eA*eT*eG*eT) [compound 407912]
- % Inhibition (human Factor 7 mRNA) [4]: 46%

Substance: 407655 (antisense eA*eG*eA*eG*eT*dG*d[5mC]*dA*dG*d[5mC]*dT*dT*dG*d[5mC]*d[5mC]*eA*eG*eG*eT*e[5mC]) [compound 407655]
- % Inhibition (human Factor 7 mRNA) [4]: 28%

Substance: 422273 (antisense eT*eA*d[5mC]*dT*dG*dA*dG*d[5mC]*dG*d[5mC]*dG*dG*dA*dA*dG*eA*eA*eG*eG*eG) [compound 422273]
- % Inhibition (human Factor 7 mRNA) [5]: 0%

Substance: 422257 (antisense e[5mC]*e[5mC]*dA*d[5mC]*d[5mC]*d[5mC]*dG*d[5mC]*d[5mC]*dG*dG*d[5mC]*dT*d[5mC]*dT*eG*e[5mC]*eT*e[5mC]*eA) [compound 422257]
- % Inhibition of human Factor 7 mRNA levels [6]: 65%

Substance: 416524 (antisense eT*eA*eA*eT*eT*dT*dA*dA*dT*dA*dT*dT*d[5mC]*dA*dG*eA*eT*eG*eG*eT) [compound 416524]
- % Inhibition of human Factor 7 mRNA levels [1]: 0%

Substance: 422175 (antisense e[5mC]*eG*e[5mC]*d[5mC]*dG*dG*d[5mC]*dT*d[5mC]*dT*dG*d[5mC]*dT*d[5mC]*dA*dT*d[5mC]*e[5mC]*e[5mC]*e[5mC]) [compound 422175]
- % Inhibition of human Factor 7 mRNA levels [6]: 69%

Substance: 407611 (antisense eT*e[5mC]*eT*e[5mC]*eA*d[5mC]*dA*dG*dT*dT*d[5mC]*d[5mC]*dG*dG*d[5mC]*e[5mC]*e[5mC]*eT*e[5mC]*eG) [compound 407611]
- % Inhibition (human Factor 7 mRNA) [4]: 82%

Substance: 407647 (antisense eG*e[5mC]*eA*eG*e[5mC]*d[5mC]*dG*dT*dT*dT*dA*dT*dT*dG*dT*eG*eA*eA*eG*e[5mC]) [compound 407647]
- % Inhibition (human Factor 7 mRNA) [4]: 83%

Substance: 422260 (antisense eG*e[5mC]*dG*d[5mC]*d[5mC]*dA*d[5mC]*d[5mC]*d[5mC]*dG*d[5mC]*d[5mC]*dG*dG*d[5mC]*eT*e[5mC]*eT*eG*e[5mC]) [compound 422260]
- % Inhibition of human Factor 7 mRNA levels [6]: 56%

Substance: 416547 (antisense eA*eT*eG*eA*eA*dA*dT*dT*d[5mC]*dT*dA*d[5mC]*d[5mC]*dT*dA*eA*eA*eG*eA*eT) [compound 416547]
- % Inhibition of human Factor 7 mRNA levels [1]: 0%

Substance: 422115 (antisense eG*e[5mC]*eG*e[5mC]*e[5mC]*dA*d[5mC]*d[5mC]*d[5mC]*dG*d[5mC]*d[5mC]*dG*dG*d[5mC]*eT*e[5mC]*eT*eG*e[5mC]) [compound 422115]
- % Inhibition of human Factor 7 mRNA levels [6]: 66%

— US20120214862A1, “MODULATION OF FACTOR 7 EXPRESSION” (ISIS Pharmaceuticals, Inc., priority 2009, published 2012)
